Test results as given in PMC6811539, “Minute-scale persistence of a GPCR conformation state triggered by non-cognate G protein interactions primes signaling” (Nature Communications, 2019).

Biological target: T1, β2-AR-mCherry, endogenous Gs (Homo sapiens, UniProt P07550)
T1 construct: expressed in transfected cells; host or cells: native (not urea-stripped) membranes of HEK293T cells transiently transfected with β2-AR-mCherry
Assay: activation of endogenous Gs (BODIPY-FL-GTPγS), native membranes expressing β2-AR-mCherry
Format: biochemical
Experimental: Membranes were prepared following a published protocol[56] from HEK293T cells transiently transfected with the appropriate DNA (β2-AR-mCherry, β2-mCerulean, […]-mCherry, β2-AR-ICL3 or β2-AR-Sp). Cells were collected in culture medium and washed twice with PBS by centrifugation (300 × g, 3 min, ambient temperature). […] Cells in solution A were lysed gently (30 strokes) in a chilled Dounce homogenizer in the presence of 1.5 μg/mL aprotinin, 1.5 μg/mL leupeptin, 5 μg/mL phenylmethylsulfonyl fluoride (PMSF) and 1 mM dithiothreitol (DTT). Nuclei and intact cells were eliminated by centrifugation at 1000 × g, 5 min, 4 °C. All subsequent centrifugation steps were performed in a TLA100.4 rotor at 135,000 × g, 30 min, 4 °C. […] HEK293T cells in 15 cm dishes were transiently transfected with β2-AR-mCherry or […]-mCherry plasmid as described in the section on “Cells, Cell culture and Transfections,” earlier. Membranes were isolated and treated with urea as detailed (Membrane preparations). Urea treatment denatures and inactivates the endogenous G proteins, allowing the reconstitution of desired combinations of Gα, and βγ subunits and specific C terminus peptides. Reconstitution reactions were assembled on ice. […] The agonist-stimulated change in fluorescence counts was calculated by subtracting the early stimulation spectra from the post-stimulation spectra. Samples treated with BODIPY buffer (no agonist) were processed similarly, to determine the increase in BODIPY fluorescence without agonist stimulation, which represented nonspecific and basal incorporation of the BODIPY in the reaction time. Specific, agonist-induced change in BODIPY fluorescence was calculated by subtracting the increase in buffer-treated samples from the agonist-mediated increase. This change in fluorescence (increase) provided a measure of BODIPY-FL-GTPγS incorporation into the Gα-subunit. Each reaction provided three agonist and three mock readings. […] BODIPY incorporation was monitored as above. […] The experiment was repeated with mock buffer and agonist-specific G-protein activation was calculated.

- primed G-protein activation response after UV before mixing (PC-Qp exposed to UV before mixing with other reactants): lost
- persistence of enhanced G-protein activation after photocleavage (PC-Qp, UV after addition to membranes): 120 s
- increase in G-protein activation in response to fenoterol (fenoterol 10 μM, 3 min, Qp 30 μM or PC-Qp 50 μM, no UV): ~ 7 fold
Substance: DTENIRFVFAAVKDTILQLNLKE(Anp)NLV [PC-Qp, photocleavable Qp, Y356 replaced by Anp]
